From paper PMC11466185, “Mechanisms and efficacy of small molecule latency-promoting agents to inhibit HIV reactivation ex vivo” (JCI Insight, 2024)

How the values were obtained:
[1] = system: HIV transcripts (TAR, LLTR, Pol, PolyA, TatRev); experiment: Baseline HIV transcription without activation, PBMCs from ART-suppressed PWH, 24 hours; type: cell-based; details: no activation; for LLTR HIV transcripts (DMSO = 100) / Pol HIV transcripts (DMSO = 100) / PolyA HIV transcripts (DMSO = 100) / Tat-Rev HIV transcripts (DMSO = 100) / PolyA/LLTR ratio (DMSO = 1) / TatRev/PolyA ratio (DMSO = 1) / TAR HIV transcripts (DMSO = 100) / LLTR/TAR ratio (DMSO = 1): ruxolitinib 4μM, dinaciclib 8nM, AZD4573 8nM, KRIBB11 2.5μM; for LLTR HIV transcripts (DMSO = 100) / Pol HIV transcripts (DMSO = 100) / PolyA HIV transcripts (DMSO = 100) / Tat-Rev HIV transcripts (DMSO = 100) / TAR HIV transcripts (DMSO = 100): pladienolide B 10nM; for PolyA/LLTR ratio (DMSO = 1) / TatRev/PolyA ratio (DMSO = 1) / LLTR/TAR ratio (DMSO = 1): pladienolide B
Method in brief: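 PBMCs from ART-suppressed people with HIV (at least 3 donors per drug), 6 × 10^6 cells/well with nevirapine and indinavir, exposed to drug in DMSO without activation for 24 h. HIV transcripts quantified by RT-ddPCR, normalized to 1 μg total RNA, expressed as % of DMSO control.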

[2] = system: PBMCs; experiment: Total number of live cells (proliferation) by trypan blue staining at day 6; type: cell-based, human; details: for Fig 6B: total live cells relative to DMSO+CD3/28: DMSO+CD3/28 = 100
Procedure: Some of our candidate LPAs can block the effects of T cell activation, which could affect T cell proliferation. Therefore, we evaluated the extent to which variations in the level of infected cells may contribute to reductions in different HIV RNA transcripts. We measured the total number of viable cells (as a measure of proliferation) and the conserved U3-U5 LTR HIV DNA region (as a measure of total infection frequency) at day 6.
(A) After 6 days, the total number of live cells was measured by trypan blue staining and then normalized to the levels of the activated DMSO (% of activated DMSO). All conditions were tested in the presence of CD3^+/CD28^+ T cell–activating beads, except for the unactivated DMSO condition. Bars indicate medians, and different colors indicate individual study participants. Comparisons were performed using Wilcoxon’s signed-rank test. (B) Total cellular DNA was extracted, and the levels of U3-U5 HIV DNA were measured to quantify infection frequency at 6 days. HIV DNA levels were normalized to copies per 10^6 cells using the input of cellular DNA (assuming 1 μg of total DNA corresponds to 160,000 cells) and then normalized to the activated DMSO control (% of activated DMSO). Bars indicate medians, and different colors indicate individual study participants.

## pladienolide B
[1]; 24 hours, at least 3 PWH
  Multiply spliced HIV transcripts without activation, median relative to DMSO: 33%
[1]; 24 hours, not statistically significant
  HIV splicing (TatRev/PolyA) without activation: severely reduce
[1]; participant 156
  LLTR HIV transcripts (DMSO = 100): 85.34
  Pol HIV transcripts (DMSO = 100): 133.38
  PolyA HIV transcripts (DMSO = 100): 150.05
  Tat-Rev HIV transcripts (DMSO = 100): 66.69
  PolyA/LLTR ratio (DMSO = 1): 1.758
  TatRev/PolyA ratio (DMSO = 1): 0.4444
[1]; participant 163
  LLTR HIV transcripts (DMSO = 100): 92.55
  Pol HIV transcripts (DMSO = 100): 107.42
  PolyA HIV transcripts (DMSO = 100): 106.43
  Tat-Rev HIV transcripts (DMSO = 100): 0
  PolyA/LLTR ratio (DMSO = 1): 1.15
  TatRev/PolyA ratio (DMSO = 1): 0
[1]; participant 1379
  LLTR HIV transcripts (DMSO = 100): 18.62
  Pol HIV transcripts (DMSO = 100): 16.13
  PolyA HIV transcripts (DMSO = 100): 25.8
  TAR HIV transcripts (DMSO = 100): 228.89
  LLTR/TAR ratio (DMSO = 1): 0.08133
  PolyA/LLTR ratio (DMSO = 1): 1.3861
[1]; participant 2027
  LLTR HIV transcripts (DMSO = 100): 81.44
  Pol HIV transcripts (DMSO = 100): 43.71
  PolyA HIV transcripts (DMSO = 100): 90.63
  TAR HIV transcripts (DMSO = 100): 125.58
  LLTR/TAR ratio (DMSO = 1): 0.6485
  PolyA/LLTR ratio (DMSO = 1): 1.113
[2]; day 6, Figure 6A
  Total live cell numbers (proliferation) compared with activated DMSO (in words): significantly lower
[2]; participant 2027
  Fig 6B: total live cells relative to DMSO+CD3/28: 130.18
[2]; participant 2147a
  Fig 6B: total live cells relative to DMSO+CD3/28: 87.14
[2]; participant 2147b
  Fig 6B: total live cells relative to DMSO+CD3/28: 432.65
[2]; participant 2161
  Fig 6B: total live cells relative to DMSO+CD3/28: 52.54
[2]; participant 2461
  Fig 6B: total live cells relative to DMSO+CD3/28: 69.04
[2]; participant 2747
  Fig 6B: total live cells relative to DMSO+CD3/28: 68.1
[2]; study participant 150a, day 6
  Total number of live cells (Fig 6A): 26.64 % of activated DMSO
[2]; study participant 156, day 6
  Total number of live cells (Fig 6A): 40.97 % of activated DMSO
[2]; study participant 163, day 6
  Total number of live cells (Fig 6A): 70.82 % of activated DMSO
[2]; study participant 2027, day 6
  Total number of live cells (Fig 6A): 28.6 % of activated DMSO
[2]; study participant 2147a, day 6
  Total number of live cells (Fig 6A): 113.84 % of activated DMSO
[2]; study participant 2147b, day 6
  Total number of live cells (Fig 6A): 53.49 % of activated DMSO
[2]; study participant 2161, day 6
  Total number of live cells (Fig 6A): 58.44 % of activated DMSO
[2]; study participant 2461, day 6
  Total number of live cells (Fig 6A): 29.57 % of activated DMSO
[2]; study participant 2747, day 6
  Total number of live cells (Fig 6A): 105.45 % of activated DMSO
[2]; study participant 2750, day 6
  Total number of live cells (Fig 6A): 17.9 % of activated DMSO
